Results from patent EP3041353B1, “COMPOSITIONS COMPRISING BACTERIOSTATIC AGENTS AND BRILLIANT BLUE G” (priority 2013, dated 2015).

Tests used:
Format in all cases: cell-based
[1] = tested on: Escherichia coli (E. coli); assay: Bacteriostatic effect of BAK with BBG/BBR: turbidity after 24 h incubation; design: key to Bakterienwachstum nach 24 h Inkubation: +: Bakterienwachstum nach 24 h Inkubation; -: kein Bakterienwachstum nach 24 h Inkubation
Procedure: (§1) Zur Untersuchung des Einflusses von BBG auf die bakteriostatische Wirkung wurden Bakterien 24 h mit erfindungsgemäßen Zusammensetzungen, Benzalkoniumchlorid (BAK) und Octenidin (Oct) als Bakteriostatikum enthielten, inkubiert. Wenn sich die Inkubationsmischung trübte, wurde das als Bakterienwachstum interpretiert. Zum Vergleich wurde Brillantblau R (BBR) anstelle von BBG eingesetzt. Die Ergebnisse sind in den Tabellen 1-4 wiedergegeben. Tabelle 1: Einfluss von BBG und BBR auf die bakteriostatische Wirkung von BAK gegenüber Escherichia coli (E. coli), + = Bakterienwachstum nach 24 h Inkubation, - = kein Bakterienwachstum nach 24 h Inkubation, R = Brillantblau R (BBR), G = Brillantblau G (BBG).

Escherichia coli DH5α = assay: Bacteriostatic effect of Octenidin with BBG: turbidity after 24 h incubation; design: key: +: Bakterienwachstum nach 24 h Inkubation; -: kein Bakterienwachstum nach 24 h Inkubation
Procedure: as §1
(§2) Gram-negative Bakterien (hier E. coli) sind widerstandsfähiger als Gram-positive Bakterien (hier Bacillus sp.) und wachsen konzentrationsabhängig. […] Tabelle 3: Einfluss von BBG auf die bakteriostatische Wirkung von Octenidin (Oct) gegenüber Gram-negativen Bakterien., + = Bakterienwachstum nach 24 h Inkubation, - = kein Bakterienwachstum nach 24 h Inkubation, BBG = Brillantblau G.

[2] = tested on: Pseudomonas putida DSM 291; assay: as above; design: key: +: Bakterienwachstum nach 24 h Inkubation; -: kein Bakterienwachstum nach 24 h Inkubation
Procedure: as §1, §2

Vibrio sp. Gal12 = assay: as above; design: key: +: Bakterienwachstum nach 24 h Inkubation; -: kein Bakterienwachstum nach 24 h Inkubation
Procedure: as §1, §2

Bacillus megaterium = assay: as above; design: key: +: Bakterienwachstum nach 24 h Inkubation; -: kein Bakterienwachstum nach 24 h Inkubation; +/-: geringes Wachstum nach 24 h Inkubation
Procedure: as §1
Tabelle 4: Einfluss von BBG auf die bakteriostatische Wirkung von Octenidin (Oct) gegenüber Gram-positiven Bakterien., + = Bakterienwachstum nach 24 h Inkubation, - = kein Bakterienwachstum nach 24 h Inkubation, +/- = geringes Wachstum nach 24 h Inkubation, BBG = Brillantblau G.

## CCOc1ccc(Nc2ccc(C(=C3C=CC(=[N+](CC)Cc4cccc(S(=O)(=O)[O-])c4)C=C3C)c3ccc(N(CC)Cc4cccc(S(=O)(=O)O)c4)cc3C)cc2)cc1 [BBG, Brillantblau G]
[1]; 0,007% G + BAK 0,01%
  Bakterienwachstum nach 24 h Inkubation: -
[1]; 0,007% G + BAK 0,001 %
  Bakterienwachstum nach 24 h Inkubation: +
[1]; 0,007% G + BAK 0,0016%
  Bakterienwachstum nach 24 h Inkubation: +
[1]; 0,007% G + BAK 0,0025%
  Bakterienwachstum nach 24 h Inkubation: +
[1]; 0,007% G + BAK 0,004%
  Bakterienwachstum nach 24 h Inkubation: -
[1]; 0,007% G + BAK 0,006%
  Bakterienwachstum nach 24 h Inkubation: -
[1]; 0,015% G + BAK 0,01%
  Bakterienwachstum nach 24 h Inkubation: -
[1]; 0,015% G + BAK 0,001 %
  Bakterienwachstum nach 24 h Inkubation: +
[1]; 0,015% G + BAK 0,0016%
  Bakterienwachstum nach 24 h Inkubation: +
[1]; 0,015% G + BAK 0,0025%
  Bakterienwachstum nach 24 h Inkubation: +
[1]; 0,015% G + BAK 0,004%
  Bakterienwachstum nach 24 h Inkubation: +
[1]; 0,015% G + BAK 0,006%
  Bakterienwachstum nach 24 h Inkubation: -
[1]; 0,030% G + BAK 0,01%
  Bakterienwachstum nach 24 h Inkubation: +
[1]; 0,030% G + BAK 0,001 %
  Bakterienwachstum nach 24 h Inkubation: +
[1]; 0,030% G + BAK 0,0016%
  Bakterienwachstum nach 24 h Inkubation: +
[1]; 0,030% G + BAK 0,0025%
  Bakterienwachstum nach 24 h Inkubation: +
[1]; 0,030% G + BAK 0,004%
  Bakterienwachstum nach 24 h Inkubation: +
[1]; 0,030% G + BAK 0,006%
  Bakterienwachstum nach 24 h Inkubation: +
[1]; 0,030% G, Kein BAK
  Bakterienwachstum nach 24 h Inkubation: +
[1]; Gram-negative Bakterien (E. coli), concentration dependent
  Einfluss auf die bakteriostatische Wirkung von BAK: einen etwas größeren Einfluss als BBR
[1]; dye alone, no BAK (rechte Spalte, Tabelle 1)
  Einfluss auf das Bakterienwachstum: beeinflussen das Bakterienwachstum nicht
Escherichia coli DH5α; 0,007% BBG + Octenidin 0,01%
  Bakterienwachstum nach 24 h Inkubation: -
Escherichia coli DH5α; 0,007% BBG + Octenidin 0,002%
  Bakterienwachstum nach 24 h Inkubation: +
Escherichia coli DH5α; 0,007% BBG + Octenidin 0,003%
  Bakterienwachstum nach 24 h Inkubation: -
Escherichia coli DH5α; 0,007% BBG + Octenidin 0,005%
  Bakterienwachstum nach 24 h Inkubation: -
Escherichia coli DH5α; 0,007% BBG + Octenidin 0,007%
  Bakterienwachstum nach 24 h Inkubation: -
Escherichia coli DH5α; 0,007% BBG + Octenidin 0,009%
  Bakterienwachstum nach 24 h Inkubation: -
Escherichia coli DH5α; 0,007% BBG, Octenidin 0%
  Bakterienwachstum nach 24 h Inkubation: +
Escherichia coli DH5α; 0,015% BBG + Octenidin 0,01%
  Bakterienwachstum nach 24 h Inkubation: -
Escherichia coli DH5α; 0,015% BBG + Octenidin 0,002%
  Bakterienwachstum nach 24 h Inkubation: +
Escherichia coli DH5α; 0,015% BBG + Octenidin 0,003%
  Bakterienwachstum nach 24 h Inkubation: +
Escherichia coli DH5α; 0,015% BBG + Octenidin 0,005%
  Bakterienwachstum nach 24 h Inkubation: +
Escherichia coli DH5α; 0,015% BBG + Octenidin 0,007%
  Bakterienwachstum nach 24 h Inkubation: -
Escherichia coli DH5α; 0,015% BBG + Octenidin 0,009%
  Bakterienwachstum nach 24 h Inkubation: -
Escherichia coli DH5α; 0,015% BBG, Octenidin 0%
  Bakterienwachstum nach 24 h Inkubation: +
Escherichia coli DH5α; 0,030% BBG + Octenidin 0,01%
  Bakterienwachstum nach 24 h Inkubation: +
Escherichia coli DH5α; 0,030% BBG + Octenidin 0,002%
  Bakterienwachstum nach 24 h Inkubation: +
Escherichia coli DH5α; 0,030% BBG + Octenidin 0,003%
  Bakterienwachstum nach 24 h Inkubation: +
Escherichia coli DH5α; 0,030% BBG + Octenidin 0,005%
  Bakterienwachstum nach 24 h Inkubation: +
Escherichia coli DH5α; 0,030% BBG + Octenidin 0,007%
  Bakterienwachstum nach 24 h Inkubation: +
Escherichia coli DH5α; 0,030% BBG + Octenidin 0,009%
  Bakterienwachstum nach 24 h Inkubation: +
Escherichia coli DH5α; 0,030% BBG, Octenidin 0%
  Bakterienwachstum nach 24 h Inkubation: +
[2]; 0,007% BBG + Octenidin 0,01%
  Bakterienwachstum nach 24 h Inkubation: -
[2]; 0,007% BBG + Octenidin 0,002%
  Bakterienwachstum nach 24 h Inkubation: +
[2]; 0,007% BBG + Octenidin 0,003%
  Bakterienwachstum nach 24 h Inkubation: -
[2]; 0,007% BBG + Octenidin 0,005%
  Bakterienwachstum nach 24 h Inkubation: -
[2]; 0,007% BBG + Octenidin 0,007%
  Bakterienwachstum nach 24 h Inkubation: -
[2]; 0,007% BBG + Octenidin 0,009%
  Bakterienwachstum nach 24 h Inkubation: -
[2]; 0,007% BBG, Octenidin 0%
  Bakterienwachstum nach 24 h Inkubation: +
[2]; 0,015% BBG + Octenidin 0,01%
  Bakterienwachstum nach 24 h Inkubation: -
[2]; 0,015% BBG + Octenidin 0,002%
  Bakterienwachstum nach 24 h Inkubation: +
[2]; 0,015% BBG + Octenidin 0,003%
  Bakterienwachstum nach 24 h Inkubation: +
[2]; 0,015% BBG + Octenidin 0,005%
  Bakterienwachstum nach 24 h Inkubation: +
[2]; 0,015% BBG + Octenidin 0,007%
  Bakterienwachstum nach 24 h Inkubation: -
[2]; 0,015% BBG + Octenidin 0,009%
  Bakterienwachstum nach 24 h Inkubation: -
[2]; 0,015% BBG, Octenidin 0%
  Bakterienwachstum nach 24 h Inkubation: +
[2]; 0,030% BBG + Octenidin 0,01%
  Bakterienwachstum nach 24 h Inkubation: +
[2]; 0,030% BBG + Octenidin 0,002%
  Bakterienwachstum nach 24 h Inkubation: +
[2]; 0,030% BBG + Octenidin 0,003%
  Bakterienwachstum nach 24 h Inkubation: +
[2]; 0,030% BBG + Octenidin 0,005%
  Bakterienwachstum nach 24 h Inkubation: +
[2]; 0,030% BBG + Octenidin 0,007%
  Bakterienwachstum nach 24 h Inkubation: +
[2]; 0,030% BBG + Octenidin 0,009%
  Bakterienwachstum nach 24 h Inkubation: +
[2]; 0,030% BBG, Octenidin 0%
  Bakterienwachstum nach 24 h Inkubation: +
Vibrio sp. Gal12; 0,007% BBG + Octenidin 0,01%
  Bakterienwachstum nach 24 h Inkubation: -
Vibrio sp. Gal12; 0,007% BBG + Octenidin 0,002%
  Bakterienwachstum nach 24 h Inkubation: +
Vibrio sp. Gal12; 0,007% BBG + Octenidin 0,003%
  Bakterienwachstum nach 24 h Inkubation: -
Vibrio sp. Gal12; 0,007% BBG + Octenidin 0,005%
  Bakterienwachstum nach 24 h Inkubation: -
Vibrio sp. Gal12; 0,007% BBG + Octenidin 0,007%
  Bakterienwachstum nach 24 h Inkubation: -
Vibrio sp. Gal12; 0,007% BBG + Octenidin 0,009%
  Bakterienwachstum nach 24 h Inkubation: -
Vibrio sp. Gal12; 0,007% BBG, Octenidin 0%
  Bakterienwachstum nach 24 h Inkubation: +
Vibrio sp. Gal12; 0,015% BBG + Octenidin 0,01%
  Bakterienwachstum nach 24 h Inkubation: -
Vibrio sp. Gal12; 0,015% BBG + Octenidin 0,002%
  Bakterienwachstum nach 24 h Inkubation: +
Vibrio sp. Gal12; 0,015% BBG + Octenidin 0,003%
  Bakterienwachstum nach 24 h Inkubation: +
Vibrio sp. Gal12; 0,015% BBG + Octenidin 0,005%
  Bakterienwachstum nach 24 h Inkubation: +
Vibrio sp. Gal12; 0,015% BBG + Octenidin 0,007%
  Bakterienwachstum nach 24 h Inkubation: -
Vibrio sp. Gal12; 0,015% BBG + Octenidin 0,009%
  Bakterienwachstum nach 24 h Inkubation: -
Vibrio sp. Gal12; 0,015% BBG, Octenidin 0%
  Bakterienwachstum nach 24 h Inkubation: +
Vibrio sp. Gal12; 0,030% BBG + Octenidin 0,01%
  Bakterienwachstum nach 24 h Inkubation: +
Vibrio sp. Gal12; 0,030% BBG + Octenidin 0,002%
  Bakterienwachstum nach 24 h Inkubation: +
Vibrio sp. Gal12; 0,030% BBG + Octenidin 0,003%
  Bakterienwachstum nach 24 h Inkubation: +
Vibrio sp. Gal12; 0,030% BBG + Octenidin 0,005%
  Bakterienwachstum nach 24 h Inkubation: +
Vibrio sp. Gal12; 0,030% BBG + Octenidin 0,007%
  Bakterienwachstum nach 24 h Inkubation: +
Vibrio sp. Gal12; 0,030% BBG + Octenidin 0,009%
  Bakterienwachstum nach 24 h Inkubation: +
Vibrio sp. Gal12; 0,030% BBG, Octenidin 0%
  Bakterienwachstum nach 24 h Inkubation: +
Bacillus megaterium; 0,015% BBG + Octenidin 0,003%
  Bakterienwachstum nach 24 h Inkubation: +/-
Bacillus megaterium; 0,030% BBG + Octenidin 0,005%
  Bakterienwachstum nach 24 h Inkubation: +/-
Bacillus megaterium; 0,030% BBG + Octenidin 0,007%
  Bakterienwachstum nach 24 h Inkubation: +/-
